In patent EP4778531A1, “MUSCLE RELAXANT ANTAGONIST FOR REVERSAL FOR BENZYLISOQUINOLINE MUSCLE RELAXANT” (priority 2023, dated 2025):

Test system: cisatracurium-induced guinea pig muscle relaxation model
Test: Arterial blood pressure and heart rate in the cisatracurium muscle relaxation model
Format: in vivo, Hartley guinea pigs
Description: Ninety (90) qualified Hartley guinea pigs, male, were used. Sixty (60) animals were randomly divided into 6 experimental groups based on body weight using a stratified random method: negative control group, positive control group, low-dose test group, medium-dose test group, high-dose test group, and combination group, with 10 animals per group (n=10). The remaining animals served as spares. The negative control group received 0.9% sodium chloride. The positive control group received 0.0625 mg/kg neostigmine methylsulfate (referred to as neostigmine). The low-dose test group received 10 mg/kg adamgammadex sodium. The medium-dose test group received 20 mg/kg adamgammadex sodium. The high-dose test group received 40 mg/kg adamgammadex sodium. The combination group received 10 mg/kg adamgammadex sodium and 0.03125 mg/kg neostigmine. The administration volume for all groups was 1 mL/kg.
Adaptive feeding was conducted after the quarantine period. On the day of the experiment, guinea pigs were weighed, administered atropine (0.1 mg/kg) intramuscularly, and then anesthetized with an intraperitoneal injection of anesthetic (pentobarbital sodium 10 mg/kg, urethane 1000 mg/kg). After fixation, the animals were intubated and connected to a small animal ventilator. Both external jugular veins and the right carotid artery were cannulated. The left jugular vein was used for cisatracurium infusion, the right jugular vein for injection of different test substances, and the carotid artery was connected to a multi-channel physiological signal acquisition and processing system for continuous monitoring of arterial blood pressure and heart rate. Electrode patches were subcutaneously placed behind the left femur and tibia of the guinea pig, and two stimulating electrodes of the neuromuscular monitor were fixed to the two electrode patches. The left hind paw was fixed on a custom-made platform. A sensor was fixed to the skin surface over the gastrocnemius muscle of the left hind limb, and a skin temperature probe was fixed to a flat area of skin. Continuous single-twitch stimulation was applied at 1 Hz. After the twitch height stabilized, the mode was switched to train-of-four stimulation (TOF mode, stimulus current 5 mA, frequency 2 Hz, pulse width 0.2 ms, interval between trains 15 s) for at least 5 min. Calibration was then performed using Calibration Mode 2, followed by TOF mode stimulation. After obtaining a stable stimulation response for at least 2 min, cisatracurium solution was infused intravenously using a dual-channel micro-infusion pump, and the start time of infusion was recorded. […] At this point, cisatracurium infusion was stopped. After stopping the infusion, neuromuscular function was allowed to recover spontaneously. When neuromuscular function reached moderate recovery, the test drug formulation was administered intravenously. Neuromuscular function was allowed to recover completely, and the administration time was recorded (Figure 1). Using the time of spontaneous recovery to moderate neuromuscular function (TOF50) as zero point, the times for recovery from TOF50 to TOF75, TOF75 to TOF90, and TOF50 to TOF90 were calculated for each animal (Table 1-2). Arterial blood pressure (systolic, diastolic, mean arterial pressure) and heart rate were recorded before cisatracurium infusion, at the time cisatracurium infusion was stopped, at the time of moderate neuromuscular recovery, and at the time of complete neuromuscular function recovery (Tables 3-7). Data were expressed as Mean ± SD. Statistical T-tests were performed using SPSS software to evaluate differences in blood pressure, heart rate, and residual neuromuscular blockade recovery times. P < 0.05 was considered statistically significant.

[1] = positive control group, 0.0625 mg/kg i.v.
[2] = high-dose test group, 40 mg/kg i.v.
[3] = low-dose test group, 10 mg/kg i.v.
[4] = medium-dose test group, 20 mg/kg i.v.

Molecule: CN(C)C(=O)Oc1cccc([N+](C)(C)C)c1 [Neostigmine, neostigmine methylsulfate]
- effect on heart rate (in words) (0.0625 mg/kg): significant side effect of lowering heart rate
- heart rate decrease (0.0625 mg/kg neostigmine, positive control group, summary statement): approximately 30%
- Heart rate Administration [1]: 238+42 bmp
- Heart rate Complete Recovery [1]: 157±49 bmp
- Heart rate Moderate Recovery [1]: 181±54 bmp
- Heart rate Muscle Relaxation End [1]: 239+11 bmp
- Heart rate Muscle Relaxation Start [1]: 240+14 bmp
- Mean Arterial Pressure mAP Administration [1]: 68+12 mmHg
- Mean Arterial Pressure mAP Complete Recovery [1]: 67+15 mmHg
- Mean Arterial Pressure mAP Moderate Recovery [1]: 69+12 mmHg
- Mean Arterial Pressure mAP Muscle Relaxation End [1]: 63+8 mmHg
- Mean Arterial Pressure mAP Muscle Relaxation Start [1]: 62+11 mmHg
- Mean Diastolic Pressure mDP Administration [1]: 60+10 mmHg
- Mean Diastolic Pressure mDP Complete Recovery [1]: 58+15 mmHg
- Mean Diastolic Pressure mDP Moderate Recovery [1]: 61+12 mmHg
- Mean Diastolic Pressure mDP Muscle Relaxation End [1]: 57+6 mmHg
- Mean Diastolic Pressure mDP Muscle Relaxation Start [1]: 56±9 mmHg
- Mean Pulse Pressure Administration [1]: 17±8 mmHg
- Mean Pulse Pressure Complete Recovery [1]: 19+6 mmHg
- Mean Pulse Pressure Moderate Recovery [1]: 19±8 mmHg
- Mean Pulse Pressure Muscle Relaxation End [1]: 14±5 mmHg
- Mean Pulse Pressure Muscle Relaxation Start [1]: 15+4 mmHg
- Mean Systolic Pressure mSP Administration [1]: 76±15 mmHg
- Mean Systolic Pressure mSP Complete Recovery [1]: 78±13 mmHg
- Mean Systolic Pressure mSP Moderate Recovery [1]: 79±13 mmHg
- Mean Systolic Pressure mSP Muscle Relaxation End [1]: 71±10 mmHg
- Mean Systolic Pressure mSP Muscle Relaxation Start [1]: 71±12 mmHg
- Degree of heart rate decrease at complete muscle relaxation recovery (positive control group, 0.0625 mg/kg i.v., vs heart rate at start of muscle relaxation): 35%

Molecule: Adamgammadex sodium [Compound 1]
- effect on animal blood pressure or heart rate (in words) (10, 20, and 40 mg/kg): no effect on animal blood pressure or heart rate
- Heart rate Administration [2]: 258+18 bmp
- Heart rate Complete Recovery [2]: 258+16 bmp
- Heart rate Moderate Recovery [2]: 257+18 bmp
- Heart rate Muscle Relaxation End [2]: 249±21 bmp
- Heart rate Muscle Relaxation Start [2]: 243+27 bmp
- Mean Arterial Pressure mAP Administration [2]: 70±8 mmHg
- Mean Arterial Pressure mAP Complete Recovery [2]: 73+10 mmHg
- Mean Arterial Pressure mAP Moderate Recovery [2]: 72+8 mmHg
- Mean Arterial Pressure mAP Muscle Relaxation End [2]: 65+10 mmHg
- Mean Arterial Pressure mAP Muscle Relaxation Start [2]: 64+12 mmHg
- Mean Diastolic Pressure mDP Administration [2]: 60+7 mmHg
- Mean Diastolic Pressure mDP Complete Recovery [2]: 63±9 mmHg
- Mean Diastolic Pressure mDP Moderate Recovery [2]: 62±8 mmHg
- Mean Diastolic Pressure mDP Muscle Relaxation End [2]: 56+9 mmHg
- Mean Diastolic Pressure mDP Muscle Relaxation Start [2]: 56+12 mmHg
- Mean Pulse Pressure Administration [2]: 21±5 mmHg
- Mean Pulse Pressure Complete Recovery [2]: 21+5 mmHg
- Mean Pulse Pressure Moderate Recovery [2]: 21+4 mmHg
- Mean Pulse Pressure Muscle Relaxation End [2]: 19±5 mmHg
- Mean Pulse Pressure Muscle Relaxation Start [2]: 18+4 mmHg
- Mean Systolic Pressure mSP Administration [2]: 81±10 mmHg
- Mean Systolic Pressure mSP Complete Recovery [2]: 84±11 mmHg
- Mean Systolic Pressure mSP Moderate Recovery [2]: 83±9 mmHg
- Mean Systolic Pressure mSP Muscle Relaxation End [2]: 75±11 mmHg
- Mean Systolic Pressure mSP Muscle Relaxation Start [2]: 74±12 mmHg
- Heart rate Administration [3]: 269+20 bmp
- Heart rate Complete Recovery [3]: 270+18 bmp
- Heart rate Moderate Recovery [3]: 268+20 bmp
- Heart rate Muscle Relaxation End [3]: 261+20 bmp
- Heart rate Muscle Relaxation Start [3]: 259+30 bmp
- Mean Arterial Pressure mAP Administration [3]: 75+15 mmHg
- Mean Arterial Pressure mAP Complete Recovery [3]: 76+13 mmHg
- Mean Arterial Pressure mAP Moderate Recovery [3]: 74+10 mmHg
- Mean Arterial Pressure mAP Muscle Relaxation End [3]: 70+11 mmHg
- Mean Arterial Pressure mAP Muscle Relaxation Start [3]: 70±16 mmHg
- Mean Diastolic Pressure mDP Administration [3]: 67+13 mmHg
- Mean Diastolic Pressure mDP Complete Recovery [3]: 68+11 mmHg
- Mean Diastolic Pressure mDP Moderate Recovery [3]: 65+8 mmHg
- Mean Diastolic Pressure mDP Muscle Relaxation End [3]: 62+9 mmHg
- Mean Diastolic Pressure mDP Muscle Relaxation Start [3]: 61+14 mmHg
- Mean Pulse Pressure Administration [3]: 19+6 mmHg
- Mean Pulse Pressure Complete Recovery [3]: 18+6 mmHg
- Mean Pulse Pressure Moderate Recovery [3]: 18±5 mmHg
- Mean Pulse Pressure Muscle Relaxation End [3]: 17+4 mmHg
- Mean Pulse Pressure Muscle Relaxation Start [3]: 18±5 mmHg
- Mean Systolic Pressure mSP Administration [3]: 85±18 mmHg
- Mean Systolic Pressure mSP Complete Recovery [3]: 86±16 mmHg
- Mean Systolic Pressure mSP Moderate Recovery [3]: 83±12 mmHg
- Mean Systolic Pressure mSP Muscle Relaxation End [3]: 79±12 mmHg
- Mean Systolic Pressure mSP Muscle Relaxation Start [3]: 79±18 mmHg
- Heart rate Administration [4]: 259+38 bmp
- Heart rate Complete Recovery [4]: 263+36 bmp
- Heart rate Moderate Recovery [4]: 261+35 bmp
- Heart rate Muscle Relaxation End [4]: 247+42 bmp
- Heart rate Muscle Relaxation Start [4]: 242+43 bmp
- Mean Arterial Pressure mAP Administration [4]: 70+8 mmHg
- Mean Arterial Pressure mAP Complete Recovery [4]: 73+6 mmHg
- Mean Arterial Pressure mAP Moderate Recovery [4]: 74+7 mmHg
- Mean Arterial Pressure mAP Muscle Relaxation End [4]: 65+10 mmHg
- Mean Arterial Pressure mAP Muscle Relaxation Start [4]: 64±8 mmHg
- Mean Diastolic Pressure mDP Administration [4]: 61+8 mmHg
- Mean Diastolic Pressure mDP Complete Recovery [4]: 64+6 mmHg
- Mean Diastolic Pressure mDP Moderate Recovery [4]: 64+6 mmHg
- Mean Diastolic Pressure mDP Muscle Relaxation End [4]: 57+9 mmHg
- Mean Diastolic Pressure mDP Muscle Relaxation Start [4]: 56+8 mmHg
- Mean Pulse Pressure Administration [4]: 19±3 mmHg
- Mean Pulse Pressure Complete Recovery [4]: 20+4 mmHg
- Mean Pulse Pressure Moderate Recovery [4]: 20+3 mmHg
- Mean Pulse Pressure Muscle Relaxation End [4]: 18±3 mmHg
- Mean Pulse Pressure Muscle Relaxation Start [4]: 18±3 mmHg
- Mean Systolic Pressure mSP Administration [4]: 80±8 mmHg
- Mean Systolic Pressure mSP Complete Recovery [4]: 84±7 mmHg
- Mean Systolic Pressure mSP Moderate Recovery [4]: 84±7 mmHg
- Mean Systolic Pressure mSP Muscle Relaxation End [4]: 75±10 mmHg
- Mean Systolic Pressure mSP Muscle Relaxation Start [4]: 74±9 mmHg
